≈ marks a conversion by molar mass, not a printed value. Calls of active or inactive are those of the source. No cut-off for these calls is given here.
Assays:
[1] = system: Mycobacterium tuberculosis; experiment: Antituberculosis activity against isoniazid-sensitive Mycobacterium tuberculosis H37Rv by microdilution method; type: functional
[2] = Selectivity index, ratio of IC50 for C57BL/6 mouse peritoneal macrophages to MIC for Mycobacterium tuberculosis H37Rv
[3] = Cytotoxicity against C57BL/6 mouse peritoneal macrophages assessed as cell viability by lactate dehydrogenase release assay; type: cell-based; conditions: C57BL/6, Peritoneal macrophage cell

Structure (SMILES)	MIC [1]	Selectivity Index [2]	IC50 [3] [µg/mL]
NNC(=O)c1cc[n+]([O-])cc1	5.2 µg/mL (≈ 34 µM)	11.5	60 (≈ 392 µM)
CC(=O)n1cc(N(NC(=O)c2ccncc2)C(=O)Nc2ccc(Cl)cc2)c2ccccc21	inactive		
CCOC(=O)c1[nH]c2ccc(OC)cc2c1/C=N/NC(N)=S	> 10 µg/mL		
CCOC(=O)c1[nH]c2ccccc2c1CNNC(=O)C1CCNCC1.CS(=O)(=O)O	20 µg/mL		
CC(=O)n1cc(NNC(=O)c2ccncc2)c2ccccc21	0.2 µg/mL (≈ 0.68 µM)	250	50 (≈ 170 µM)
CCOC(=O)c1[nH]c2ccccc2c1CN(NC(=O)c1ccncc1)C(=O)Nc1ccc(Cl)cc1	inactive		
CCOC(=O)c1[nH]c2ccc(C)cc2c1/C=N/NC(N)=S	2 µg/mL (≈ 6.57 µM)		
NC(=S)N/N=C/c1c(C(=O)O)[nH]c2ccccc12	> 10 µg/mL		
CCOC(=O)c1[nH]c2ccc(Cl)cc2c1/C=N\NC(=O)c1ccncc1	0.1 µg/mL (≈ 0.27 µM)		
CCOC(=O)c1[nH]c2ccc(C)cc2c1/C=N\NC(=O)c1ccncc1	0.05 µg/mL (≈ 0.143 µM)	300	15 (≈ 42.8 µM)
CCOC(=O)c1[nH]c2ccc(C)cc2c1CNNC(=O)c1ccncc1	0.2 µg/mL (≈ 0.568 µM)		
Cc1ccc2[nH]c(C(=O)O)c(/C=N/NC(N)=S)c2c1	> 10 µg/mL		
Cc1ccc2[nH]c(C(=O)O)c(/C=N\NC(=O)c3ccncc3)c2c1	0.1 µg/mL (≈ 0.31 µM)	250	25 (≈ 77.6 µM)
NNC(=O)c1ccc[n+]([O-])c1	> 10 µg/mL		
CCOC(=O)c1[nH]c2ccc(Br)cc2c1CNNC(=O)c1ccncc1	10 µg/mL (≈ 24 µM)		
CCOC(=O)c1[nH]c2ccccc2c1CN(NC(=O)c1ccncc1)C(=O)c1ccncc1	inactive		

Structure (SMILES)	MIC [1]	Selectivity Index [2]	IC50 [3] [µg/mL]
CCOC(=O)c1[nH]c2ccccc2c1/C=N\NC(=O)c1cc[n+]([O-])cc1	2 µg/mL (≈ 5.68 µM)	9	18 (≈ 51.1 µM)
CCOC(=O)c1[nH]c2ccccc2c1/C=N\NC(=O)c1ccncc1	0.15 µg/mL (≈ 0.446 µM)	106.6	16 (≈ 47.6 µM)
CC(=O)n1cc(NNC(=O)c2cc[n+]([O-])cc2)c2ccccc21	2 µg/mL (≈ 6.45 µM)		
NC(=S)N/N=C/c1c(C(=O)O)[nH]c2ccc(Cl)cc12	10 µg/mL (≈ 33.7 µM)		
CC(=O)N1C/C(=N\NC(N)=S)c2ccccc21	> 10 µg/mL		
O=C(N/N=C\c1c[nH]c2ccccc12)c1ccncc1	0.1 µg/mL (≈ 0.378 µM)	400	40 (≈ 151 µM)
CCOC(=O)c1[nH]c2ccc(Cl)cc2c1CNNC(=O)c1ccncc1	0.2 µg/mL (≈ 0.536 µM)		
CC(=O)n1cc(NNC(=O)c2cccnc2)c2ccccc21	20 µg/mL (≈ 68 µM)		
NNC(=O)c1cccnc1 [NICOTINIC ACID HYDRAZIDE]	5 µg/mL (≈ 36.5 µM)		
O=C(NNCc1c[nH]c2ccccc12)c1ccncc1	0.1 µg/mL (≈ 0.376 µM)	150	15 (≈ 56.3 µM)
CCOC(=O)c1[nH]c2ccccc2c1CNNC(=O)c1cc[n+]([O-])cc1	2 µg/mL (≈ 5.64 µM)	8	16 (≈ 45.2 µM)
COc1ccc2[nH]c(C(=O)O)c(/C=N/NC(N)=S)c2c1	> 10 µg/mL		
O=C(N/N=C\c1c[nH]c2ccccc12)c1cc[n+]([O-])cc1	1 µg/mL (≈ 3.57 µM)	30	30 (≈ 107 µM)
CCOC(=O)c1[nH]c2ccccc2c1CNNC(=O)c1ccncc1	0.2 µg/mL (≈ 0.591 µM)		
CC(=O)n1cc(NNC(=O)c2ccc[n+]([O-])c2)c2ccccc21	2 µg/mL (≈ 6.45 µM)		17 (≈ 54.8 µM)
NNC(=O)c1ccncc1 [ISONIAZID]	0.06 µg/mL (≈ 0.438 µM)	>1666	> 100

— ChEMBL document CHEMBL3751705, “Synthesis and antituberculosis activity of indole-pyridine derived hydrazides, hydrazide-hydrazones, and thiosemicarbazones” (Bioorg Med Chem Lett, 2016)
